Measured values published in PubChem BioAssay (NCI).
Values joined by “and” are separate entries in the source; they are usually repeats but may differ in a detail not shown here. Equal values may be shown once.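 Cultured in 96-well plates, cells were exposed to test compound for 48 hours across five concentrations. GI50: concentration for 50% inhibition of growth. The concentration for full growth arrest is given as TGI.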

Experiments:
Experiment in all cases: NCI tumour cell line growth inhibition, 48 h
[1] = test system: MDA-MB-231 breast
[2] = test system: SK-MEL-5 melanoma
[3] = test system: A549 NSCLC
[4] = test system: SK-OV-3 ovarian
[5] = test system: SK-MEL-2 melanoma
[6] = test system: OVCAR-3 ovarian
[7] = test system: NCI/ADR-RES ovarian
[8] = test system: SN12C renal
[9] = test system: T-47D breast
[10] = test system: CAKI-1 renal

Q: `CC1=C(C)CC2(C=C(C(C)(C)C)C(=O)C(C(C)(C)C)=C2)SC1` was tested. Which TGI [1] did it give?
A: 29.2 µM

Q: What about the TGI [2] of the same molecule?
A: 27.4 µM

Q: And the TGI [3]?
A: 65.3 µM

Q: What about the TGI [4] of the same molecule?
A: 71 µM

Q: What about the TGI [5] of the same molecule?
A: 26 µM

Q: And the TGI [6]?
A: 36.1 µM

Q: And the TGI [7]?
A: 39.4 µM

Q: What about the TGI [8] of the same molecule?
A: 33.2 µM

Q: What about the TGI [9] of the same molecule?
A: 87.3 µM

Q: What about the TGI [10] of the same molecule?
A: 54.9 µM

Q: What does the source list for `O=C(NO)NCCCl`?
A: TGI [1]: > 100 µM; TGI [2]: > 100 µM; TGI [3]: > 100 µM; TGI [4]: > 100 µM; TGI [5]: > 100 µM; TGI [6]: > 100 µM; TGI [7]: > 100 µM; TGI [8]: > 100 µM; TGI [9]: > 100 µM; TGI [10]: > 100 µM

Q: Which TGI [1] does the source give for `C[C@]12CC(c3ccccc3O1)C(C(=O)Nc1nc(C34CC5CC(CC(C5)C3)C4)cs1)C(=O)N2` (some centres not stated) here?
A: > 100 µM

Q: What about the TGI [2] of the same molecule?
A: > 100 µM

Q: What about the TGI [3] of the same molecule?
A: > 100 µM

Q: And the TGI [4]?
A: > 100 µM

Q: And the TGI [5]?
A: > 100 µM

Q: What about the TGI [6] of the same molecule?
A: > 100 µM

Q: What about the TGI [7] of the same molecule?
A: > 100 µM

Q: And the TGI [8]?
A: > 100 µM

Q: What about the TGI [9] of the same molecule?
A: > 100 µM

Q: And the TGI [10]?
A: > 100 µM

Q: `O=C(/C(=C\I)c1ccccc1)c1ccccc1` was tested. Which TGI [1] did it give?
A: 17.4 µM

Q: What about the TGI [2] of the same molecule?
A: 31.3 µM

Q: And the TGI [3]?
A: 49.2 µM

Q: And the TGI [4]?
A: 32.3 µM

Q: What about the TGI [5] of the same molecule?
A: 21.4 µM

Q: And the TGI [6]?
A: 5.71 µM

Q: And the TGI [7]?
A: 44.1 µM

Q: And the TGI [8]?
A: 34.9 µM

Q: And the TGI [9]?
A: 6.02 µM

Q: And the TGI [10]?
A: 3.07 µM

Q: Which results are given for `COc1ccccc1C(=O)NCC1CCCN2CCCCC12` (configuration not stated)?
A: TGI [1]: > 100 µM; TGI [2]: > 100 µM; TGI [3]: > 100 µM; TGI [4]: > 100 µM; TGI [5]: > 100 µM; TGI [6]: > 100 µM; TGI [7]: > 100 µM; TGI [8]: > 100 µM; TGI [9]: > 100 µM; TGI [10]: > 100 µM

Q: What does the source list for `Cc1cccc(CC(Cc2ccc(C)cc2C(=O)O)C(=O)O)c1` (configuration not stated)?
A: TGI [1]: > 100 µM; TGI [2]: > 100 µM; TGI [3]: > 100 µM; TGI [4]: > 100 µM; TGI [5]: > 100 µM; TGI [6]: > 100 µM; TGI [7]: > 100 µM; TGI [8]: > 100 µM; TGI [9]: > 100 µM; TGI [10]: > 100 µM

Q: What does the source list for `NCCN1C(=O)c2ccccc2C1c1ccc(Cl)cc1` (configuration not stated)?
A: TGI [1]: > 100 µM; TGI [2]: > 100 µM; TGI [3]: > 100 µM; TGI [4]: > 100 µM; TGI [5]: > 100 µM; TGI [6]: > 100 µM; TGI [7]: > 100 µM; TGI [8]: > 100 µM; TGI [9]: > 100 µM; TGI [10]: > 100 µM

Q: With `CC(C)=CC(=O)c1[nH]c2ccccc2c1CC(=O)NCCc1cncn1C` as the molecule, how does the TGI [1] read?
A: > 100 µM

Q: What about the TGI [2] of the same molecule?
A: > 100 µM

Q: What about the TGI [3] of the same molecule?
A: > 100 µM

Q: And the TGI [4]?
A: > 100 µM

Q: And the TGI [5]?
A: > 100 µM

Q: And the TGI [6]?
A: > 100 µM

Q: What about the TGI [7] of the same molecule?
A: > 100 µM

Q: And the TGI [8]?
A: > 100 µM

Q: And the TGI [9]?
A: > 100 µM

Q: What about the TGI [10] of the same molecule?
A: > 100 µM

Q: With `O=C(Nc1ccc(S(=O)(=O)/N=c2\ncccn2C(=O)C(C(F)(F)F)C(F)(F)F)cc1)C(C(F)(F)F)C(F)(F)F` as the molecule, how does the TGI [1] read?
A: > 100 µM

Q: And the TGI [2]?
A: > 100 µM

Q: And the TGI [3]?
A: > 100 µM

Q: And the TGI [4]?
A: > 100 µM

Q: What about the TGI [5] of the same molecule?
A: > 100 µM

Q: And the TGI [6]?
A: > 100 µM

Q: And the TGI [7]?
A: > 100 µM

Q: And the TGI [8]?
A: > 100 µM

Q: And the TGI [9]?
A: > 100 µM

Q: And the TGI [10]?
A: 0.242 µM

Q: What does the source list for `O=c1[nH]c(NCc2ccc(Cl)cc2)nc2nc[nH]c12`?
A: TGI [1]: > 100 µM; TGI [2]: > 100 µM; TGI [3]: > 100 µM; TGI [4]: > 100 µM; TGI [5]: > 100 µM; TGI [6]: > 100 µM; TGI [7]: > 100 µM; TGI [8]: > 100 µM; TGI [9]: > 100 µM; TGI [10]: > 100 µM

Q: What does the source list for `C[C@@H]1CC(=O)C[C@@H]2CC[C@H]3[C@@H]4CC[C@H](OC(=O)c5cccc6cc7ccccc7nc56)[C@H]4CC[C@@H]3[C@H]21`?
A: TGI [1]: 37 µM; TGI [2]: 28.3 µM; TGI [3]: 83.2 µM; TGI [4]: 66.7 µM; TGI [5]: 38 µM; TGI [6]: 29.8 µM; TGI [7]: 55.1 µM; TGI [8]: 33.1 µM; TGI [9]: 37.5 µM; TGI [10]: 33.7 µM

Q: Which results are given for `CN(C)c1ccc(/C=C/c2sc3ccccc3[n+]2C)cc1`?
A: GI50 [1]: 2 µM and 7.25 µM; TGI [1]: 10.1 µM and 33.8 µM; TGI [2]: 3.93 µM and 3.27 µM; TGI [3]: 16.7 µM and 17.2 µM; TGI [4]: 17.1 µM; TGI [5]: 8.88 µM and 5.81 µM; TGI [6]: 3.82 µM and 2.86 µM; TGI [7]: > 100 µM; GI50 [8]: 1.71 µM and 0.645 µM; TGI [8]: 7.6 µM and 15.7 µM; TGI [9]: 11.1 µM and 30.5 µM; TGI [10]: 13.2 µM and 11.6 µM

Q: How did the TGI [1] turn out when `O=c1c(Cc2ccc(Cl)cc2)nnc2sc(-c3ccc(-c4ccc(Cl)cc4Cl)o3)nn12` was run?
A: > 100 µM

Q: What about the TGI [2] of the same molecule?
A: > 100 µM

Q: What about the TGI [3] of the same molecule?
A: > 100 µM

Q: What about the TGI [4] of the same molecule?
A: > 100 µM

Q: What about the TGI [5] of the same molecule?
A: > 100 µM

Q: And the TGI [6]?
A: > 100 µM

Q: What about the TGI [7] of the same molecule?
A: > 100 µM

Q: And the TGI [8]?
A: > 100 µM

Q: What about the TGI [9] of the same molecule?
A: > 100 µM

Q: And the TGI [10]?
A: > 100 µM

Q: Which TGI [1] does the source give for `CC(C)(NC(=O)OCc1ccccc1)C(=O)OC(=O)C(C)(C)NC(=O)OCc1ccccc1` here?
A: > 100 µM

Q: What about the TGI [2] of the same molecule?
A: > 100 µM

Q: What about the TGI [3] of the same molecule?
A: > 100 µM

Q: What about the TGI [4] of the same molecule?
A: > 100 µM

Q: What about the TGI [5] of the same molecule?
A: > 100 µM

Q: And the TGI [6]?
A: > 100 µM

Q: And the TGI [7]?
A: > 100 µM

Q: What about the TGI [8] of the same molecule?
A: > 100 µM

Q: And the TGI [9]?
A: > 100 µM

Q: What about the TGI [10] of the same molecule?
A: > 100 µM

Q: What does the source list for `C#CC(O)/C=C/CCCCCCC#CC/C=C\CC#CCCCCCCCCC(O)C#C` (configuration not stated)?
A: TGI [1]: 11.8 µM; TGI [2]: 9.71 µM; TGI [3]: 25.8 µM; TGI [4]: 32.3 µM; TGI [5]: 9.44 µM; TGI [6]: 24.5 µM; TGI [7]: 10.2 µM; TGI [8]: 4.79 µM; TGI [9]: 36.3 µM; TGI [10]: 9.08 µM

Q: For `CCc1c(-c2ccc(OC)cc2)oc(OC)c(C)c1=O`, which TGI [1] is on record?
A: > 100 µM

Q: And the TGI [2]?
A: > 100 µM

Q: And the TGI [3]?
A: > 100 µM

Q: And the TGI [4]?
A: > 100 µM

Q: What about the TGI [5] of the same molecule?
A: > 100 µM

Q: And the TGI [6]?
A: > 100 µM

Q: And the TGI [7]?
A: > 100 µM

Q: What about the TGI [8] of the same molecule?
A: > 100 µM

Q: And the TGI [9]?
A: > 100 µM

Q: What about the TGI [10] of the same molecule?
A: > 100 µM

Q: `COC(=O)C1(SC)C2CCC3C2CCC31` (configuration not stated) was tested. Which TGI [1] did it give?
A: > 100 µM

Q: What about the TGI [2] of the same molecule?
A: > 100 µM

Q: What about the TGI [3] of the same molecule?
A: > 100 µM

Q: What about the TGI [4] of the same molecule?
A: > 100 µM

Q: And the TGI [5]?
A: > 100 µM

Q: And the TGI [6]?
A: > 100 µM

Q: What about the TGI [7] of the same molecule?
A: > 100 µM

Q: And the TGI [8]?
A: > 100 µM

Q: And the TGI [9]?
A: > 100 µM

Q: What about the TGI [10] of the same molecule?
A: > 100 µM

Q: Which TGI [1] does the source give for `CC1(C)COC2=C(C1)C(=O)c1ccccc1C2=O` here?
A: 4 µM

Q: What about the TGI [2] of the same molecule?
A: 1.88 µM

Q: And the TGI [3]?
A: 4.76 µM

Q: What about the TGI [4] of the same molecule?
A: 3.72 µM

Q: What about the TGI [5] of the same molecule?
A: 3.88 µM

Q: And the TGI [6]?
A: 2.06 µM

Q: And the TGI [7]?
A: 1.94 µM

Q: And the TGI [8]?
A: 2.76 µM

Q: And the TGI [9]?
A: 2.44 µM

Q: And the TGI [10]?
A: 3.9 µM

Q: Which TGI [1] does the source give for `COC1(CC[C@@H](C)COC2OC(CO)C(O)C(O)C2O)O[C@H]2C[C@H]3[C@@H]4CC=C5C[C@@H](OC6OC(CO)C(O)C(OC7OC(CO)C(O)C(O)C7O)C6OC6OC(C)C(O)C(O)C6O)CC[C@]5(C)[C@H]4CC[C@]3(C)[C@H]2[C@@H]1C` (some centres not stated) here?
A: 16.5 µM

Q: What about the TGI [2] of the same molecule?
A: 27.5 µM

Q: What about the TGI [3] of the same molecule?
A: 9.36 µM

Q: And the TGI [4]?
A: 15 µM

Q: What about the TGI [5] of the same molecule?
A: 29.2 µM

Q: What about the TGI [6] of the same molecule?
A: 32.2 µM

Q: What about the TGI [7] of the same molecule?
A: 33.6 µM

Q: And the TGI [8]?
A: > 56 µM

Q: And the TGI [9]?
A: 25.9 µM

Q: And the TGI [10]?
A: 12 µM

Q: Which results are given for `COc1ccc(C2C(=O)c3c(OC)cc(OC)cc3OC2c2cccnc2)cc1` (configuration not stated)?
A: TGI [1]: > 100 µM; TGI [2]: > 100 µM; TGI [3]: > 100 µM; TGI [4]: > 100 µM; TGI [5]: > 100 µM; TGI [6]: > 100 µM; TGI [7]: > 100 µM; TGI [8]: > 100 µM; TGI [9]: > 100 µM; TGI [10]: > 100 µM
